Results reported in patent US20060116427A1, “Adapalene polymorphic forms” (priority 2004, published 2006).

What was measured:
[1] = Particle size (mean diameter D[4,3]) by laser light scattering, Malvern Mastersizer MS1; format: physicochemical; conditions: product as obtained, not micronised
Procedure: According to present invention, when a particles sample is stated to have mean diameter, referred to as D[4,3], higher than X μm, this means that the mean volume of the particles constituting the sample is higher than the volume of a spherical particle with diameter X.
The particle sizes, i.e. mean diameter values D[4,3], were determined with the known technique of laser light scattering using a Malvern Mastersizer MS1 instrumentation under the following operative conditions: • 300RF mm lens with laser beam length of 2.4 mm; • 100 mg sample dispersed in 100 ml of isopar and 0.5 ml of a 2% solution of lecithin in isopar, with 3 min presonication and 2500 rpm stirring rate.

[2] = Stability of the solid form at room temperature; format: physicochemical

mean D[4,3] diameter of particles ([1]; listed as Adapalene Amorphous Form)	mean D[4,3] diameter of particles ([1]; listed as Adapalene Crystalline Form α)	mean D[4,3] diameter of particles ([1]; listed as adapalene crystalline Form a)	stability of the polymorphic form [2]	Structure (SMILES)
approx. 15 μm	–	–	–	COc1ccc(-c2ccc3cc(C(=O)O)ccc3c2)cc1C12CC3CC(CC(C3)C1)C2 [adapalene amorphous Form, 6-[3-(1-adamantyl)-4-methoxyphenyl]-2-naphthoic acid]
–	approx. 15 μm	about 15 μm	stable at room temperature	COc1ccc(-c2ccc3cc(C(=O)O)ccc3c2)cc1C12CC3CC(CC(C3)C1)C2 [adapalene crystalline Form α, 6-[3-(1-adamantyl)-4-methoxyphenyl]-2-naphthoic acid]
